# In patent publication US10167262B2, “Herbicidal substituted 3-arylpyrazoles” (FMC CORPORATION, priority 2014, dated 2019):
# Where two headings read alike, the source gives them in different places.
# How the values were obtained:
# Assay type in all cases: in vivo
# [1] = tested on: barnyardgrass (Echinochloa crus-galli); test: Test A pre-/postemergence greenhouse herbicide test, visual injury rating 0-100; details: for pest or weed control at 500 g/ha: 500 g ai/ha
# Summary of the method: (§1)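 Visual injury versus untreated controls, scored about 10 days after treatment on a 0 to 100 scale (0 = no effect, 100 = complete control). Applications were preemergence directed soil spray plus postemergence spray at one- to two-leaf stage, 2 to 10 cm plants.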
# corn (Zea mays) = test: as above; details: for plant injury at 500 g/ha: 500 g ai/ha
# Summary of the method: as §1
# [2] = tested on: giant foxtail (Setaria faberii); test: as above; details: for pest or weed control at 500 g/ha: 500 g ai/ha
# Summary of the method: as §1
# [3] = tested on: large (Lg) crabgrass (Digitaria sanguinalis); test: as above; details: for pest or weed control at 500 g/ha: 500 g ai/ha
# Summary of the method: as §1
# [4] = tested on: morningglory (Ipomoea spp.); test: as above; details: for pest or weed control at 500 g/ha: 500 g ai/ha
# Summary of the method: as §1
# [5] = tested on: pigweed (Amaranthus retroflexus); test: as above; details: for pest or weed control at 500 g/ha: 500 g ai/ha
# Summary of the method: as §1
# [6] = tested on: velvetleaf (Abutilon theophrasti); test: as above; details: for pest or weed control at 500 g/ha: 500 g ai/ha
# Summary of the method: as §1
# [7] = tested on: wheat (Triticum aestivum); test: as above; details: for plant injury at 500 g/ha: 500 g ai/ha
# Summary of the method: as §1
# [8] = tested on: johnsongrass (Sorghum halepense); test: Test C pre-/postemergence greenhouse test, plant response rating 0-100; details: Sorghum halepense; for pest or weed control at 62 g/ha: 62 g ai/ha; for pest or weed control at 125 g/ha: 125 g ai/ha; for pest or weed control at 250 g/ha: 250 g ai/ha
# Summary of the method: (§2)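 Plants were scored visually against controls 13–15 days after treatment on a 0–100 scale, 100 meaning complete control. Test chemicals, formulated in surfactant-containing non-phytotoxic solvent, went preemergence onto seeds in loam–sand blend or postemergence onto 1- to 4-leaf plants (2–18 cm) grown in peat-based mix.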
# [9] = tested on: lambsquarters (Chenopodium album); test: as above; details: Chenopodium album; for pest or weed control at 62 g/ha: 62 g ai/ha; for pest or weed control at 125 g/ha: 125 g ai/ha; for pest or weed control at 250 g/ha: 250 g ai/ha
# Summary of the method: as §2
# [10] = tested on: morningglory (Ipomoea coccinea); test: as above; details: Ipomoea; for pest or weed control at 62 g/ha: 62 g ai/ha; for pest or weed control at 125 g/ha: 125 g ai/ha; for pest or weed control at 250 g/ha: 250 g ai/ha
# Summary of the method: as §2
# [11] = tested on: velvetleaf (Abutilon theophrasti); test: as above; details: Abutilon theophrasti; for pest or weed control at 62 g/ha: 62 g ai/ha; for pest or weed control at 125 g/ha: 125 g ai/ha; for pest or weed control at 250 g/ha: 250 g ai/ha
# Summary of the method: as §2
# [12] = post-emergence, Postemergence, read-out: Plant response rating (0 to 100), Johnsongrass
# [13] = post-emergence, Postemergence, scale 0 to 100
# [14] = post-emergence, Postemergence, 500 g ai/ha, scale 0 to 100
# [15] = pre-emergence, Preemergence, 31 g ai/ha
# [16] = pre-emergence, Preemergence, read-out: Plant response rating, Johnsongrass
# [17] = post-emergence, Postemergence, read-out: Plant response rating (0 to 100), Lambsquarters
# [18] = pre-emergence, Preemergence, read-out: Plant response rating, Lambsquarters
# [19] = post-emergence, Postemergence, read-out: Plant response rating (0 to 100), Morningglory
# [20] = pre-emergence, Preemergence, read-out: Plant response rating, Morningglory
# [21] = post-emergence, Postemergence, read-out: Plant response rating (0 to 100), Velvetleaf
# [22] = pre-emergence, Preemergence, read-out: Plant response rating, Velvetleaf
smiles,measurement,setting,value
"O=C(c1ccccc1)c1cn(CO)nc1-c1cc(Cl)cc(Cl)c1 [Compound 15, [3-(3,5-dichlorophenyl)-1-(hydroxymethyl)-1H-pyrazol-4-yl]phenylmethanone]",pest or weed control at 125 g/ha,"[1]; Echinochloa crus-galli, post-emergence, 240 h, Postemergence, 125 g ai/ha, read-out: Plant response rating (0 to 100 scale), Barnyardgrass",0%
same,pest or weed control at 500 g/ha,"[1]; Echinochloa crus-galli, post-emergence, 240 h, Postemergence, read-out: Plant response rating (0 to 100 scale), Barnyardgrass",0%
same,pest or weed control at 500 g/ha,"[1]; Echinochloa crus-galli, pre-emergence, 240 h, Preemergence, read-out: Plant response rating (0 to 100 scale), Barnyardgrass",0%
same,"Barnyardgrass plant response rating (0 = no effect, 100 = complete control)","[1]; Preemergence, 125 g ai/ha",0
same,"Corn plant response rating (0 = no effect, 100 = complete control)","corn (Zea mays); Preemergence, 125 g ai/ha",0
same,plant injury at 125 g/ha,"corn (Zea mays); Zea mays, post-emergence, 240 h, Postemergence, 125 g ai/ha, read-out: Plant response rating (0 to 100 scale), Corn",0%
same,plant injury at 500 g/ha,"corn (Zea mays); Zea mays, post-emergence, 240 h, Postemergence, read-out: Plant response rating (0 to 100 scale), Corn",0%
same,plant injury at 500 g/ha,"corn (Zea mays); Zea mays, pre-emergence, 240 h, Preemergence, read-out: Plant response rating (0 to 100 scale), Corn",0%
same,"Foxtail, Giant plant response rating (0 = no effect, 100 = complete control)","[2]; Preemergence, 125 g ai/ha",0
same,pest or weed control at 125 g/ha,"[2]; Setaria faberi, post-emergence, 240 h, Postemergence, 125 g ai/ha, read-out: Plant response rating (0 to 100 scale), Foxtail, Giant",0%
same,pest or weed control at 500 g/ha,"[2]; Setaria faberi, post-emergence, 240 h, Postemergence, read-out: Plant response rating (0 to 100 scale), Foxtail, Giant",0%
same,pest or weed control at 500 g/ha,"[2]; Setaria faberi, pre-emergence, 240 h, Preemergence, read-out: Plant response rating (0 to 100 scale), Foxtail, Giant",0%
same,pest or weed control at 125 g/ha,"[3]; Digitaria sanguinalis, post-emergence, 240 h, Postemergence, 125 g ai/ha, read-out: Plant response rating (0 to 100 scale), Crabgrass, Large",0%
same,pest or weed control at 500 g/ha,"[3]; Digitaria sanguinalis, post-emergence, 240 h, Postemergence, read-out: Plant response rating (0 to 100 scale), Crabgrass, Large",0%
same,pest or weed control at 500 g/ha,"[3]; Digitaria sanguinalis, pre-emergence, 240 h, Preemergence, read-out: Plant response rating (0 to 100 scale), Crabgrass, Large",0%
same,"Crabgrass, Large plant response rating (0 = no effect, 100 = complete control)","[3]; Preemergence, 125 g ai/ha",0
same,pest or weed control at 125 g/ha,"[4]; Ipomoea, post-emergence, 240 h, Postemergence, 125 g ai/ha, read-out: Plant response rating (0 to 100 scale), Morningglory",0%
same,pest or weed control at 500 g/ha,"[4]; Ipomoea, post-emergence, 240 h, Postemergence, read-out: Plant response rating (0 to 100 scale), Morningglory",0%
same,pest or weed control at 500 g/ha,"[4]; Ipomoea, pre-emergence, 240 h, Preemergence, read-out: Plant response rating (0 to 100 scale), Morningglory",0%
same,"Morningglory plant response rating (0 = no effect, 100 = complete control)","[4]; Preemergence, 125 g ai/ha",0
same,pest or weed control at 125 g/ha,"[5]; Amaranthus retroflexus, post-emergence, 240 h, Postemergence, 125 g ai/ha, read-out: Plant response rating (0 to 100 scale), Pigweed",80%
same,pest or weed control at 500 g/ha,"[5]; Amaranthus retroflexus, post-emergence, 240 h, Postemergence, read-out: Plant response rating (0 to 100 scale), Pigweed",90%
same,pest or weed control at 500 g/ha,"[5]; Amaranthus retroflexus, pre-emergence, 240 h, Preemergence, read-out: Plant response rating (0 to 100 scale), Pigweed",100%
same,"Pigweed plant response rating (0 = no effect, 100 = complete control)","[5]; Preemergence, 125 g ai/ha",20
same,pest or weed control at 125 g/ha,"[6]; Abutilon theophrasti, post-emergence, 240 h, Postemergence, 125 g ai/ha, read-out: Plant response rating (0 to 100 scale), Velvetleaf",80%
same,pest or weed control at 500 g/ha,"[6]; Abutilon theophrasti, post-emergence, 240 h, Postemergence, read-out: Plant response rating (0 to 100 scale), Velvetleaf",90%
same,pest or weed control at 500 g/ha,"[6]; Abutilon theophrasti, pre-emergence, 240 h, Preemergence, read-out: Plant response rating (0 to 100 scale), Velvetleaf",90%
same,"Velvetleaf plant response rating (0 = no effect, 100 = complete control)","[6]; Preemergence, 125 g ai/ha",40
same,"Wheat plant response rating (0 = no effect, 100 = complete control)","[7]; Preemergence, 125 g ai/ha",0
same,plant injury at 125 g/ha,"[7]; Triticum aestivum, post-emergence, 240 h, Postemergence, 125 g ai/ha, read-out: Plant response rating (0 to 100 scale), Wheat",0%
same,plant injury at 500 g/ha,"[7]; Triticum aestivum, post-emergence, 240 h, Postemergence, read-out: Plant response rating (0 to 100 scale), Wheat",0%
same,plant injury at 500 g/ha,"[7]; Triticum aestivum, pre-emergence, 240 h, Preemergence, read-out: Plant response rating (0 to 100 scale), Wheat",0%
same,pest or weed control at 62 g/ha,[8]; [12],0%
same,pest or weed control at 125 g/ha,[8]; [12],0%
same,pest or weed control at 250 g/ha,[8]; [13],0%
same,pest or weed control at 500 g/ha,[8]; [14],0%
same,pest or weed control at 31 g/ha,[8]; [15],0%
same,pest or weed control at 62 g/ha,[8]; [16],0%
same,pest or weed control at 125 g/ha,[8]; [16],0%
same,pest or weed control at 250 g/ha,"[8]; pre-emergence, Preemergence",0%
same,pest or weed control at 62 g/ha,[9]; [17],75%
same,pest or weed control at 125 g/ha,[9]; [17],80%
same,pest or weed control at 250 g/ha,[9]; [13],80%
same,pest or weed control at 500 g/ha,[9]; [14],90%
same,pest or weed control at 31 g/ha,[9]; [15],100%
same,pest or weed control at 62 g/ha,[9]; [18],100%
same,pest or weed control at 125 g/ha,[9]; [18],100%
same,pest or weed control at 250 g/ha,"[9]; pre-emergence, Preemergence",100%
same,pest or weed control at 62 g/ha,[10]; [19],0%
same,pest or weed control at 125 g/ha,[10]; [19],0%
same,pest or weed control at 250 g/ha,[10]; [13],10%
same,pest or weed control at 500 g/ha,[10]; [14],20%
same,pest or weed control at 31 g/ha,[10]; [15],0%
same,pest or weed control at 62 g/ha,[10]; [20],0%
same,pest or weed control at 125 g/ha,[10]; [20],0%
same,pest or weed control at 250 g/ha,"[10]; pre-emergence, Preemergence",0%
same,pest or weed control at 62 g/ha,[11]; [21],80%
same,pest or weed control at 125 g/ha,[11]; [21],80%
same,pest or weed control at 250 g/ha,[11]; [13],90%
same,pest or weed control at 500 g/ha,[11]; [14],90%
same,pest or weed control at 62 g/ha,[11]; [22],60%
same,pest or weed control at 125 g/ha,[11]; [22],100%
same,pest or weed control at 250 g/ha,"[11]; pre-emergence, Preemergence",100%
